Values of other authors as cited in patent US6358944B1, “Methods and compositions for treating generalized anxiety disorder” (Vela Pharmaceuticals, Inc., priority 1999, dated 2002).

In the case of CN(C)CCC=C1c2ccccc2C=Cc2ccccc21 [cyclobenzaprine, 3-(5H-Dibenzo[a,d]cyclohepten-5-ylidene)-N,N-dimethyl-1-propanamine], the “other less common side effects” value (cyclobenzaprine treatment) is given as “nausea, tiredness, constipation, blurred vision, nervousness, confusion, abdominal pain and discomfort”, the principal side effects (cyclobenzaprine treatment) is given as “drowsiness, dry mouth or tongue, dizziness and bad taste” and the organ toxicity (cyclobenzaprine-treated patients at recommended doses) is given as “No indications of organ toxicity were found”. For the same molecule, the “toxic effects after overdose” value (three individuals who ingested between 260 to 900 mg) was “Toxic effects were reported”.
